Read-outs that look alike come from different tables or passages of the source. Values belong to the compound of their own block, whether it stands above or below them.
Tests used:
HeLa cells [1] = experiment: Alkaline comet assay; type: cell-based
Method: Comet assay is a sensitive method to determine DNA damage which was performed after some modifications in a published protocol. […] The cervical cancer (HeLa) cells were treated with IC50 value of potent compound 5j for 24 h. Cells were harvested, collected and centrifuged to obtain a pellet. Pelleted cells were re-suspended in media. Untreated cells were used as control cells. For the positive control, 2 × 10^4 cells were treated with 20 µM of freshly prepared hydrogen peroxide for 30 min. Slides were prepared by coating with 1% normal melting point agarose (NMPA) on one side and then dried. Samples (2 × 10^4 cells/sample) were re-suspended in 1 mL of PBS. In a tube, 0.4 mL cell suspension was mixed with 1.2 mL of 0.9% low melting point agarose (LMPA) and mixed thoroughly by pipetting. A cell suspension of 65 µL was laid on coated slide and evenly distributed by placing a coverslip over it. Slides were placed at − 20 °C for 10 min. Then the slides were placed at 4 °C in the dark in a lysis buffer of 100 mM EDTA, 10 mM Trizma base, 2.5 M sodium chloride, 10% DMSO and 1% Triton X-100 in distilled water with a pH of 10. After an overnight incubation, slides were washed with chilled distilled water. These slides were then placed in electrophoresis chamber (Wealtec, USA) having chilled (4 °C) alkali unwinding solution (300 mM sodium hydroxide and 1 mM EDTA in distilled water). Electrophoresis was carried out at an adjusted voltage (between 0.7 and 1.0 V/cm) for 35 min in an electrophoresis tank. Slides were then immersed in neutralization solution (0.4 M Trizma base in 800 mL water, pH 7.5) for 10 min in dark. Propidium iodide (20 µL of 0.01 mg/mL) was used as fluorescent dye to stain DNA. Slides were placed in dark at room temperature. After 10 min, images were captured using a fluorescence microscope (Nikon ECLIPSE Ni–U, Japan) at an excitation/emission wavelength of 493/632 nm. Microscopic images were analyzed using ImageJ (ij152-win-java8, National Institutes of Health, Bethesda, USA) and OpenComet (OpenComet_imagej_v1.3.1, USA) where the DNA content in the head and tail of the comets were automatically measured by the software. Results of three independent experiments were expressed as tail length ([…]), %DNA in comet tail and comet tail moment.

caspase-3/7 = experiment: Activated caspase-3/7 in HeLa cells; type: cell-based; conditions: versus control
Text: (§1) Results were represented as fold increase in activated caspase-9 and caspase-3/7 as compared to control as previously reported.

MCF-7 cells [2] = experiment: MTT cell viability assay, MCF-7; type: cell-based; conditions: Homo sapiens; for inhibition at 100 µM: MCF7, 100 µM, 24 h, read-out: %Inhibition at 100 µM, MCF-7 cell line
Method: (§2) The anti-proliferative activity of the studied compounds was determined against breast (MCF-7) and cervical (HeLa) cancer cells by the MTT cell viability assay as described earlier[44],[45]. BHK-21 cells were used as non-cancerous cells to study the effect of these compounds on normal cells. Briefly, 1 × 10^4 cells/well were seeded in 96-well microtiter plate and placed in an incubator (Heracell™ VIOS 160i, Thermo-Fisher Scientific) set for 5% CO2 at 37 °C. The stock solutions of compounds were prepared at 10 mM concentration in DMSO. Initial working solutions were prepared in cell culture medium at 1 mM concentration. […] After 24 h, medium in each well was aspirated and cells were treated for 4 h with serum free medium containing 0.2 mg/mL MTT reagent. The solubilizing reagent (10% acidified sodium dodecyl sulfate in propanol in a 1:1 ratio) was added to solubilize formazan crystals. Plates were kept at 37 °C for 30 min and then placed on a gyratory shaker for few min for complete solubilization of formazan crystals. The optical density was measured at 570 nm by microplate reader and IC50 values were calculated from three independent experiments as previously reported.

HeLa cells [3] = experiment: LDH cytotoxicity assay, HeLa; type: cell-based; conditions: IC50 and 2 × IC50
Method: (§3) Briefly, 1 × 10^4 cells/well were seeded in a flat bottom 96 well cell culture plate and kept for overnight incubation. Cells were treated with potent compounds 5j and 5k at the IC50 and 2 × IC50 values. The plate was centrifuged at 1500 rpm for 3 min and the supernatant (50 µL) transferred to a new sterile 96-well plate. After addition of substrate mix (50 µL), plate was placed at room temperature for 30 min. The absorbance was measured at 490 nm and 680 nm using microplate reader (FLUOstar Omega, Ortenberg, Germany). Cytotoxicity was measured as described earlier.

HeLa cells [4] = experiment: Oxidative stress (H2DCF-DA staining), HeLa; type: cell-based; conditions: IC50 and 2 × IC50
Method: (§4) After washing with sterile PBS, cells were fixed and 10 µL (0.01 mg/mL) of H2DCF-DA dye was added on microscopic slides. After an incubation of 10 min at room temperature in the dark, fluorescence photomicrographs were obtained as previously reported.

HeLa cells [5] = experiment: Fluorescence microscopy of apoptosis (PI, DAPI), HeLa; type: cell-based; conditions: IC50 and 2 × IC50, 24 h
Method: (§5) Morphological changes in compound treated cancer cells were identified using propidium iodide (PI) and 4′,6-diamidino-2-phenylindole (DAPI) staining with observing under a fluorescence microscope (Nikon ECLIPSE Ni–U, Japan). […] After 24 h, media was aspirated, cells were washed with sterile phosphate buffered saline (PBS) and fixed by using 4% formalin and 0.1% Triton X–100 as adherent cells fixation solution. Further, 10 µL (0.01 mg/mL) of PI or DAPI solution was added on slides and kept for 10 min in dark. Fluorescence photomicrographs were captured as previously reported.

HeLa cells [6] = experiment: Mitochondrial membrane potential (JC-1), HeLa; type: cell-based; conditions: IC50 and 2 × IC50, 24 h
Method: (§6) Mitochondrial membrane potential was determined by a fluorimetric method using fluorescent dye 5′,5′,6′,6′-tetrachloro-1′,1′,3′,3′-[…] (JC-1). Briefly, 1 × 10^5 cells were grown and treated with IC50 and 2 × IC50 values of compounds 5j and 5k for 24 h. Cells were harvested, pelletized and treated with 0.25 µM of fluorescent dye JC-1. Each sample was transferred to a flat-bottomed black 96-well plate, which was kept in the dark for 20 min. Fluorescence emission was measured by a fluorescent microplate reader (FLUOstar Omega BMG Labtech, Germany) at 590 nm and 520 nm for j-aggregates and j-monomers. Results were measured as ratio of red/green fluorescence as previously reported.

herring sperm DNA = experiment: DNA binding studies (UV absorption); conditions: 200 µM compound; 0 to 396 µM DNA; hypochromicity, no red or blue shift
Method: A stock solution of 5 mg of DNA was prepared in 10 mL of distilled water and the purity of the DNA (A260/A280) was in the range of 1.6 to 1.9. Compound 5j was tested at a final concentration of 200 µM with varying end concentrations (0 to 396 µM) of DNA. The plate was placed at room temperature for 30 min and the UV absorption spectrum was recorded by microplate reader (FLUOstar Omega BMG Labtech, Ortenberg, Germany).

HeLa cells [7] = experiment: MTT cell viability assay, HeLa; type: cell-based; conditions: 24 h; for IC50: read-out: IC50 (µM) ± SEM, HeLa Cell Line; for inhibition at 100 µM: read-out: %Inhibition at 100 µM, HeLa cell line
Method: as §2

HeLa cells [8] = experiment: Cell cycle analysis by flow cytometry; type: cell-based; conditions: IC50 and 2 × IC50, PI staining
Method: Briefly, HeLa cells (2 × 10^5 cells/mL) were grown and treated with IC50 and 2 × IC50 values of potent compound 5j. Cells were harvested and washed three times with PBS to remove traces of cell culture medium. Cells were fixed in 70% ethanol for 24 h at − 20 °C. Pelletized cells were then re-suspended in 1 mL of a solution containing PI (20 µg/mL), RNase A (50 µg/mL) and 0.1% (v/v) Triton X-100. Samples were kept in the dark for 30 min at room temperature and analyzed within an hour as reported earlier.

caspase-9 [9] = experiment: Activated caspase-9 in HeLa cells; type: cell-based; conditions: versus control
Text: as §1

BHK-21 cells = experiment: MTT cell viability assay, non-cancerous BHK-21; type: cell-based, Baby Hamster; conditions: Mesocricetus auratus, 24 h, read-out: IC50 (µM) ± SEM, BHK-21 cell line
Method: as §2

MCF-7 cells [10] = experiment: Fluorescence microscopy of apoptosis (PI, DAPI), MCF-7; type: cell-based; conditions: IC50 and 2 × IC50, 24 h
Method: as §5

MCF-7 cells [11] = experiment: LDH cytotoxicity assay, MCF-7; type: cell-based; conditions: IC50 and 2 × IC50
Method: as §3

MCF-7 cells [12] = experiment: Oxidative stress (H2DCF-DA staining), MCF-7; type: cell-based; conditions: IC50 and 2 × IC50
Method: as §4

caspase-9 [13] = experiment: Activated caspase-9 in MCF-7 cells; type: cell-based; conditions: versus control
Text: as §1

caspase-7 = experiment: Activated caspase-7 in MCF-7 cells; type: cell-based; conditions: versus control
Text: as §1

MCF-7 cells [14] = experiment: Mitochondrial membrane potential (JC-1), MCF-7; type: cell-based; conditions: IC50 and 2 × IC50, 24 h
Method: as §6

[15] = 5j 6.4 µM 24 h, H2O2 20 µM 30 min (positive control)

mode of interaction with DNA (absorption spectra) (herring sperm DNA): non-covalently bound to DNA
IC50 (HeLa cells [7]): 6.43 ± 0.45 µM
IC50 (HeLa cells [7]; Homo sapiens): 6.4 ± 0.45 µM
Compound: Cc1[nH]nc2nc(N)c3c(N)nc4ccc(F)cc4c3c12 [5j]
DNA damage in comet assay (HeLa cells [1]; 6.4 µM): DNA damage in treated cells, comparable to positive control
%DNA in tail ± SD (HeLa cells [1]; 5j 6.4 µM 24 h): 41.02 ± 7.61%
Tail length ± SD (HeLa cells [1]; [15]): 43 ± 10.3 µm
Tail moment ± SD (HeLa cells [1]; [15]): 23.22 ± 1.61
fold increase in activated caspase-3/7 (caspase-3/7; at 2 × IC50, 18 h): 4.8 folds
fold increase in activated caspase-3/7 (caspase-3/7; at IC50, 18 h): about 4 folds
inhibition at 100 µM (MCF-7 cells [2]): 47.8%
leaked LDH (cytotoxic effect) (HeLa cells [3]): dose dependent increase in leaked LDH
ROS production, H2DCF-DA staining (HeLa cells [4]): ROS generation
morphological features of apoptosis, PI and DAPI staining (HeLa cells [5]): Cell detachment, shrinkage of cells and condensation of nuclear material was observed
mitochondrial membrane potential, ratio of red/green fluorescence (JC-1) (HeLa cells [6]): decrease in red/green ratio
inhibition at 100 µM (HeLa cells [7]; Homo sapiens): 94.8%
cell cycle arrest (HeLa cells [8]): G0/G1 arrest
fold increase in activated caspase-9 (caspase-9 [9]; at 2 × IC50, 18 h): 2.2 folds
fold increase in activated caspase-9 (caspase-9 [9]; at IC50, 18 h): 1.4 folds
IC50 (BHK-21 cells): 27.5 ± 1.32 µM

IC50 (MCF-7 cells [2]; MCF7, 24 h, read-out: IC50 (µM) ± SEM, MCF-7 cell line): 2.03 ± 0.23 µM
IC50 (HeLa cells [7]; Homo sapiens): 7.25 ± 0.12 µM
Compound: Cc1[nH]nc2nc(N)c3c(N)nc4ccc(Cl)cc4c3c12 [5k]
morphological features of apoptosis, PI and DAPI staining (MCF-7 cells [10]): Cell detachment, shrinkage of cells and condensation of nuclear material was observed
leaked LDH (cytotoxic effect) (MCF-7 cells [11]): dose dependent increase in leaked LDH
inhibition at 100 µM (MCF-7 cells [2]): 69.5%
ROS production, H2DCF-DA staining (MCF-7 cells [12]): ROS generation
fold increase in activated caspase-9 (caspase-9 [13]; at 2 × IC50, 18 h): 1.4 folds
fold increase in activated caspase-9 (caspase-9 [13]; at IC50, 18 h): 1.1 folds
fold increase in activated caspase-7 (caspase-7; at 2 × IC50, 18 h): 1.8 fold
fold increase in activated caspase-7 (caspase-7; at IC50, 18 h): 1.4 fold
inhibition at 100 µM (HeLa cells [7]; Homo sapiens): 96.4%
IC50 (BHK-21 cells): 8.21 ± 0.57 µM
mitochondrial membrane potential, ratio of red/green fluorescence (JC-1) (MCF-7 cells [14]): decrease in red/green ratio
